Where two headings read alike, the source gives them in different places.
Columns and labels:
EKVX = assay type: cell-based, human; settings: 10^Δ2-x, relative to compound 2
NCI/ADR-RES = assay: cells; assay type: cell-based, human
NCI-H522 = assay type: cell-based, human; settings: 10^Δ2-x, relative to compound 2
[1] = test system: EWS-FLI1 transcription factor; settings: compared to 1, as opposed to a non-specific promoter; cited from earlier work
[2] = CD-1, mouse, in vivo
T-47D = assay type: cell-based, human; settings: 10^Δ2-x, relative to compound 2
SR = assay type: cell-based, human; settings: 10^Δ2-x, relative to compound 2
UACC-257 = assay type: cell-based, human; settings: 10^Δ2-x, relative to compound 2
SF-295 = assay type: cell-based, human; settings: 10^Δ2-x, relative to compound 2
IGROV1 = assay type: cell-based, human; settings: 10^Δ2-x, relative to compound 2
LOX IMVI = assay type: cell-based, human; settings: 10^Δ2-x, relative to compound 2
SK-MEL-5 = assay type: cell-based, human; settings: 10^Δ2-x, relative to compound 2
K-562 = assay type: cell-based, human; settings: 10^Δ2-x, relative to compound 2
SF-539 = assay type: cell-based, human; settings: 10^Δ2-x, relative to compound 2
NCI-H23 = assay type: cell-based, human; settings: 10^Δ2-x, relative to compound 2
MCF7 = assay type: cell-based, human; settings: 10^Δ2-x, relative to compound 2
KM12 = assay type: cell-based, human; settings: 10^Δ2-x, relative to compound 2
OVCAR-4 = assay type: cell-based, human; settings: 10^Δ2-x, relative to compound 2
ACHN = assay type: cell-based, human; settings: 10^Δ2-x, relative to compound 2
MDA-MB-231/ATCC = assay type: cell-based, human; settings: 10^Δ2-x, relative to compound 2
A498 = assay type: cell-based, human; settings: 10^Δ2-x, relative to compound 2
NCI-H460 = assay type: cell-based, human; settings: 10^Δ2-x, relative to compound 2
OVCAR-5 = assay type: cell-based, human; settings: 10^Δ2-x, relative to compound 2
CAKI-1 = assay type: cell-based, human; settings: 10^Δ2-x, relative to compound 2
MOLT-4 = assay type: cell-based, human; settings: 10^Δ2-x, relative to compound 2
OVCAR-8 = assay type: cell-based, human; settings: 10^Δ2-x, relative to compound 2
HOP-62 = assay type: cell-based, human; settings: 10^Δ2-x, relative to compound 2
SF-268 = assay type: cell-based, human; settings: 10^Δ2-x, relative to compound 2
HCT-116 = assay type: cell-based, human; settings: 10^Δ2-x, relative to compound 2
HCC-2998 = assay type: cell-based, human; settings: 10^Δ2-x, relative to compound 2
Plasma pharmacokinetics = assay type: in vivo, CD-1 mice; settings: mice, iv 18 mg/kg
SK-OV-3 = assay type: cell-based, human; settings: 10^Δ2-x, relative to compound 2
MDA-MB-468 = assay type: cell-based, human; settings: 10^Δ2-x, relative to compound 2
SN12C = assay type: cell-based, human; settings: 10^Δ2-x, relative to compound 2
RPMI-8226 = assay type: cell-based, human; settings: 10^Δ2-x, relative to compound 2
[3] = Assays of toxicity, maximum tolerated dose; settings: in vivo
MDA-MB-435 = assay type: cell-based, human; settings: 10^Δ2-x, relative to compound 2
COLO 205 = assay type: cell-based, human; settings: 10^Δ2-x, relative to compound 2
A549/ATCCC = assay type: cell-based, human; settings: 10^Δ2-x, relative to compound 2
TK-10 = assay type: cell-based, human; settings: 10^Δ2-x, relative to compound 2
HL-60(TB) = assay type: cell-based, human; settings: 10^Δ2-x, relative to compound 2
[4] = test system: COLO-205 (colon), A549 (non-small cell lung) and BXCP3 (pancreas); assay: cells; assay type: cell-based; settings: 72 h, read-out: average GI50 (50% of growth inhibition)
[5] = test system: panel of 12 tumor cell lines implanted in mice; assay: NCI hollow fiber assay; assay type: in vivo
SK-MEL28 = assay type: cell-based, human; settings: 10^Δ2-x, relative to compound 2
HCT-15 = assay type: cell-based, human; settings: 10^Δ2-x, relative to compound 2
SNB-75 = assay type: cell-based, human; settings: 10^Δ2-x, relative to compound 2
60 cancer cell lines = assay: cells; assay type: cell-based, human; settings: for GI50: Homo sapiens
M14 = assay type: cell-based, human; settings: 10^Δ2-x, relative to compound 2
SW-620 = assay type: cell-based, human; settings: 10^Δ2-x, relative to compound 2
SK-MEL2 = assay type: cell-based, human; settings: 10^Δ2-x, relative to compound 2
SNB-19 = assay type: cell-based, human; settings: 10^Δ2-x, relative to compound 2
OVCAR-3 = assay type: cell-based, human; settings: 10^Δ2-x, relative to compound 2

CO[C@@H]([C@@H]1Cc2cc3cc(O[C@H]4C[C@@H](O[C@H]5C[C@@H](O)[C@H](O)[C@@H](C)O5)[C@H](O)[C@@H](C)O4)c(C)c(O)c3c(O)c2C(=O)[C@H]1O[C@H]1C[C@@H](O[C@H]2C[C@@H](O[C@H]3C[C@H](O)[C@H](O)[C@@H](C)O3)[C@H](O)[C@@H](C)O2)[C@H](O)[C@@H](C)O1)[C@@H](O)C(C)=O [Compound 9, demycarosyl-3D-β-D-digitoxosyl-mithramycin SK]
activity improvement factor (EKVX): 1.60 | activity improvement factor (NCI/ADR-RES; 10^Δ2-x, relative to compound 2): 0.15 | GI50 (NCI/ADR-RES; Homo sapiens): > 10 µM | activity improvement factor (NCI-H522): 0.79 | inhibition of luciferase activity driven by NRB01 [1]: inhibits more effectively | fold less toxic than compound 3 [2]: about 2 fold | activity improvement factor (T-47D): 1.74 | activity improvement factor (SR): 1.11 | activity improvement factor (UACC-257): 1.66 | activity improvement factor (SF-295): 2.00 | activity improvement factor (IGROV1): 7.16 | activity improvement factor (LOX IMVI): 1.23 | activity improvement factor (SK-MEL-5): 1.62 | activity improvement factor (K-562): 1.40 | activity improvement factor (SF-539): 1.30 | activity improvement factor (NCI-H23): 1.86 | activity improvement factor (MCF7): 0.92 | activity improvement factor (KM12): 1.66 | activity improvement factor (OVCAR-4): 3.76 | activity improvement factor (ACHN): 4.47 | activity improvement factor (MDA-MB-231/ATCC): 2.75 | activity improvement factor (A498): 2.24 | activity improvement factor (NCI-H460): 1.19 | activity improvement factor (OVCAR-5): 1.97 | activity improvement factor (CAKI-1): 1.64 | activity improvement factor (MOLT-4): 2.43 | activity improvement factor (OVCAR-8): 1.51 | activity improvement factor (HOP-62): 2.26 | activity improvement factor (SF-268): 1.40 | activity improvement factor (HCT-116): 1.17 | activity improvement factor (HCC-2998): 3.76 | plasma level (Plasma pharmacokinetics; after 30 min): ~1,7 μM | plasma level (Plasma pharmacokinetics; after 120 min): below 0,1 μM | activity improvement factor (SK-OV-3): 3.85 | activity improvement factor (MDA-MB-468): 1.48 | activity improvement factor (SN12C): 1.70 | activity improvement factor (RPMI-8226): 0.73 | fold less toxicity than parental compound 1, single treatment [3]: about 32 fold | activity improvement factor (MDA-MB-435): 1.82 | activity improvement factor (COLO 205): 2.26 | activity improvement factor (A549/ATCCC): 2.04 | activity improvement factor (TK-10): 2.45 | activity improvement factor (HL-60(TB)): 2.24 | GI50 [4]: 300 to 1300 nM | hollow fiber assay total score ([5]; 12 tumor cell lines, daily ip for four days): 66/96 | hollow fiber assay intraperitoneal score ([5]; intraperitoneal implants): 36/48 | hollow fiber assay subcutaneous score ([5]; subcutaneous implants): 30/48 | activity improvement factor (SK-MEL28): 1.46 | activity improvement factor (HCT-15): 1.00 | activity improvement factor (SNB-75): 0.93 | GI50 (60 cancer cell lines; read-out: Mean GI50): 30 nM | GI50 (60 cancer cell lines; read-out: Mean log(GI50) (converted)): 30.2 nM | fold more active than 10, in average (60 cancer cell lines; NCI-60 GI50): about 5 fold | activity improvement factor (M14): 2.19 | activity improvement factor (SW-620): 1.30 | activity improvement factor (SK-MEL2): 1.23 | activity improvement factor (SNB-19): 1.55 | activity improvement factor (OVCAR-3): 3.51

Reference: article PMC3395220 (Journal of Medicinal Chemistry, 2012)
